Test results reported in ChEMBL document CHEMBL1201862, “PubChem BioAssay data set” (2004).
The source made the active and inactive calls.

Assays:
[1] = system: Streptococcus sp. 'group A'; assay: Streptococcus pyogenes SK(-)GAS viability under kanamycin – luminescence, BacTiterGlo, confirmation, counter-screen for streptokinase expression inhibitor project, dose response (AID 1900); assay type: functional, organism-based
Streptokinase A = molecular target: T1, Streptokinase A (Streptococcus pyogenes serotype M1, UniProt P10520); assay: viability-normalized secreted streptokinase activity reduction – plasminogen activation absorbance, OD405, dose response (AID 1914); assay type: functional, Streptococcus pyogenes M1 GAS;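 note: secreted streptokinase activity via plasminogen activation per viability signal from cell pellet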
T1 sequence (P10520 whole entry): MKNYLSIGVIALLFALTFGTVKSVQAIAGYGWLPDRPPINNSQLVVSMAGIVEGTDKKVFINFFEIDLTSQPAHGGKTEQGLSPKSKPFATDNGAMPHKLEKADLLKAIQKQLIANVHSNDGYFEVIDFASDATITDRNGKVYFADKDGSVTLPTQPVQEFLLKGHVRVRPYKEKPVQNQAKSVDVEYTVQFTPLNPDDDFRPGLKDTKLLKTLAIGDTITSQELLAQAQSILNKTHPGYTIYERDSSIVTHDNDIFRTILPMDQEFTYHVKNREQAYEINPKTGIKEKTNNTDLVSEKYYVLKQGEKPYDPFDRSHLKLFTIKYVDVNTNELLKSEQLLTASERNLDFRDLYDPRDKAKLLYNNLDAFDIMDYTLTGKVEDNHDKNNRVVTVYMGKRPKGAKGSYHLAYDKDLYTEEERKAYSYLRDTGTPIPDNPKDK

Streptococcus = assay: GAS UMAA2166 growth inhibition – luminescence, BacTiterGlo, counter-screen for streptokinase expression inhibitor project, dose response (AID 1915); assay type: functional, organism-based;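 note: potency for reduction of bacterial viability or growth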
[2] = molecular target: T2, Ubiquitin-conjugating enzyme E2 N (Homo sapiens, UniProt P61088); assay type: functional;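 note: Dose-response confirmation in a TR-FRET assay detecting UBC13-driven polyubiquitin chain formation, inhibition measured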
T2 sequence (P61088 whole entry): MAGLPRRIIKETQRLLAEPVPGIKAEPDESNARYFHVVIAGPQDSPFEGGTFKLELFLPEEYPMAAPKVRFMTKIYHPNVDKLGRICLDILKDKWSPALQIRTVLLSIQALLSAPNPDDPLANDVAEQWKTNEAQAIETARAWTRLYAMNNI

HEK293 = assay: EBV LMP1 TES2 canonical NF-kB signalling blockers – cell-based, HEK293, luciferase, cherry-pick, dose response (AID 588343); assay type: functional; conditions: Homo sapiens
[3] = molecular target: T3, Polyadenylate-binding protein 1 (Homo sapiens, UniProt P11940); assay: MLLE binding blockers, Cy5 peptide tracer – biochemical, fluorescence polarization, Cy5-PAM2 peptide, secondary, miRNA deadenylation inhibitor project, dose response (AID 602260); assay type: functional; conditions: read-out: IC50_Mean
T3 sequence (P11940 whole entry, the tested form may be a part): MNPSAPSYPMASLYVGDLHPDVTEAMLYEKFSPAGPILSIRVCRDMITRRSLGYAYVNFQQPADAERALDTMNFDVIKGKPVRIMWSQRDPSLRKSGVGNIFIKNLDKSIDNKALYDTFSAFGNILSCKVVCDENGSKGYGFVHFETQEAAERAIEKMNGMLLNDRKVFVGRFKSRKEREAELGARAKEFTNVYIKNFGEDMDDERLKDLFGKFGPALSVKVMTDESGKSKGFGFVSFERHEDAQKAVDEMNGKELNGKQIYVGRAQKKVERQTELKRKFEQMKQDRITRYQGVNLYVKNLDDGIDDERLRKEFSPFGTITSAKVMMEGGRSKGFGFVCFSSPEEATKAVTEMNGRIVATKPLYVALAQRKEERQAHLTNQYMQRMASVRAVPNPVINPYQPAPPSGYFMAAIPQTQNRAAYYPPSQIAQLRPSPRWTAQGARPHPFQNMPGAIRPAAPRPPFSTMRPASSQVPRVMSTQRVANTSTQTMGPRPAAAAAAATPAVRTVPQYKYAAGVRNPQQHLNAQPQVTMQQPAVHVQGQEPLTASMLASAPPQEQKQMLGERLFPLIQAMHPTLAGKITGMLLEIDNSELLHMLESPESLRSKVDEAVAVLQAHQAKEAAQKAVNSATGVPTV

[4] = molecular target: T3, Polyadenylate-binding protein 1; assay: MLLE domain peptide-binding blockers, IC50 – biochemical, fluorescence polarization, FITC-PAM2 peptide, dose response (AID 602259); assay type: functional; conditions: read-out: IC50_Mean
[5] = microbe, parasite or virus in culture; assay type: functional; conditions: Mycobacterium tuberculosis
Vero = assay: viability of Vero cells under compound – cytotoxicity control for flavivirus capping enzyme inhibitors (AID 588742); assay type: functional; conditions: Chlorocebus sabaeus
[6] = molecular target: 26S proteasome non-ATPase regulatory subunit 14 (Homo sapiens, UniProt O00487); assay: inhibition of proteasome subunit RPN11 – biochemical, fluorescence polarization, uHTS hits, confirmation (AID 602368); assay type: functional
Sequence of 26S proteasome non-ATPase regulatory subunit 14 (O00487 whole entry): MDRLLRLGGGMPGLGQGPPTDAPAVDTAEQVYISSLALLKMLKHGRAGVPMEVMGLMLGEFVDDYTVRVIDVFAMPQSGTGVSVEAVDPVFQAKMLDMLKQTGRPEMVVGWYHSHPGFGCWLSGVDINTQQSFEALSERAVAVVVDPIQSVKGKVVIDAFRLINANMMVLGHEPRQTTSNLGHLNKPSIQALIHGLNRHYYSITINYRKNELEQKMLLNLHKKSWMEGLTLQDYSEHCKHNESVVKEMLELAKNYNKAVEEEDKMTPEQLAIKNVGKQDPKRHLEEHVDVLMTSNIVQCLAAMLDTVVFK

[7] = molecular target: 72 kDa type IV collagenase (Homo sapiens, UniProt P08253); assay: Dose Response validation of uHTS RPN11 inhibitor hits using a MMP-2 Fluorescence assay.; assay type: functional
Sequence of 72 kDa type IV collagenase (P08253 whole entry): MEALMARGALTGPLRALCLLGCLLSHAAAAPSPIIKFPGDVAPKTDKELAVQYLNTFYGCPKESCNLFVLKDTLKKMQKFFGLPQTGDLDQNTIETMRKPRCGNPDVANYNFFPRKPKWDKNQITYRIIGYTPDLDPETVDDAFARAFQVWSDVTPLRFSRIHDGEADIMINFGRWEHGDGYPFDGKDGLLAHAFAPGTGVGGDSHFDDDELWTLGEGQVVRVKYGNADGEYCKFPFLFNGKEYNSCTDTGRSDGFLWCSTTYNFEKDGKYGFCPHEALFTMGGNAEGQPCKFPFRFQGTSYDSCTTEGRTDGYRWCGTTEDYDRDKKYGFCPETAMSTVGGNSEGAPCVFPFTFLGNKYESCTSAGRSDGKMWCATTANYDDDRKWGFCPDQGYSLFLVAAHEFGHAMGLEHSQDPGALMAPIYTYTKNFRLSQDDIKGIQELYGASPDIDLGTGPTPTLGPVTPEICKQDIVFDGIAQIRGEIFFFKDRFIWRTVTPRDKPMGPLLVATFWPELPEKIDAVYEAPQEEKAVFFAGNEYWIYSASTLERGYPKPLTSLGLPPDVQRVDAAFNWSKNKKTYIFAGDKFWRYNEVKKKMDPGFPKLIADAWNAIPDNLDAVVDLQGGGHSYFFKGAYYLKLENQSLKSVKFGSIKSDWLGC

Prothrombin = Prothrombin (Bos taurus, UniProt P00735); assay: thrombin protease inhibitors – biochemical, fluorescence polarization, uHTS hits, dose response (AID 602369); assay type: functional
[8] = Trypanosoma cruzi growth suppression in host cells – NIH3T3 host cells, beta-gal luminescence, confirmation (AID 2044); assay type: functional, cell-based;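 note: intracellular parasites grown in NIH/3T3 mouse fibroblasts as host cells; luminescent beta-galactosidase reporter signal from transgenic T. cruzi replicating inside host cells; inhibitors lower the luminescence signal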
[9] = NIH3T3 cell viability loss – ATP luminescence, mouse fibroblasts, counter-screen, dose response (AID 2010); assay type: functional, cell-based;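 note: cells exposed to compound for about 90 hours before reading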
[10] = molecular target: Heat shock protein HSP 90-alpha (Homo sapiens, UniProt P07900); assay type: functional, organism-based
[11] = molecular target: Arf-GAP with SH3 domain, ANK repeat and PH domain-containing protein 1 (Homo sapiens, UniProt Q9ULH1); assay type: functional;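 note: biochemical fluorescence polarization dose–response screen measuring inhibition of ASAP1; ASAP1 GAP domain stimulating GTP hydrolysis by truncated human ARF1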
Sequence of Arf-GAP with SH3 domain, ANK repeat and PH domain-containing protein 1 (Q9ULH1 whole entry, the tested form may be a part): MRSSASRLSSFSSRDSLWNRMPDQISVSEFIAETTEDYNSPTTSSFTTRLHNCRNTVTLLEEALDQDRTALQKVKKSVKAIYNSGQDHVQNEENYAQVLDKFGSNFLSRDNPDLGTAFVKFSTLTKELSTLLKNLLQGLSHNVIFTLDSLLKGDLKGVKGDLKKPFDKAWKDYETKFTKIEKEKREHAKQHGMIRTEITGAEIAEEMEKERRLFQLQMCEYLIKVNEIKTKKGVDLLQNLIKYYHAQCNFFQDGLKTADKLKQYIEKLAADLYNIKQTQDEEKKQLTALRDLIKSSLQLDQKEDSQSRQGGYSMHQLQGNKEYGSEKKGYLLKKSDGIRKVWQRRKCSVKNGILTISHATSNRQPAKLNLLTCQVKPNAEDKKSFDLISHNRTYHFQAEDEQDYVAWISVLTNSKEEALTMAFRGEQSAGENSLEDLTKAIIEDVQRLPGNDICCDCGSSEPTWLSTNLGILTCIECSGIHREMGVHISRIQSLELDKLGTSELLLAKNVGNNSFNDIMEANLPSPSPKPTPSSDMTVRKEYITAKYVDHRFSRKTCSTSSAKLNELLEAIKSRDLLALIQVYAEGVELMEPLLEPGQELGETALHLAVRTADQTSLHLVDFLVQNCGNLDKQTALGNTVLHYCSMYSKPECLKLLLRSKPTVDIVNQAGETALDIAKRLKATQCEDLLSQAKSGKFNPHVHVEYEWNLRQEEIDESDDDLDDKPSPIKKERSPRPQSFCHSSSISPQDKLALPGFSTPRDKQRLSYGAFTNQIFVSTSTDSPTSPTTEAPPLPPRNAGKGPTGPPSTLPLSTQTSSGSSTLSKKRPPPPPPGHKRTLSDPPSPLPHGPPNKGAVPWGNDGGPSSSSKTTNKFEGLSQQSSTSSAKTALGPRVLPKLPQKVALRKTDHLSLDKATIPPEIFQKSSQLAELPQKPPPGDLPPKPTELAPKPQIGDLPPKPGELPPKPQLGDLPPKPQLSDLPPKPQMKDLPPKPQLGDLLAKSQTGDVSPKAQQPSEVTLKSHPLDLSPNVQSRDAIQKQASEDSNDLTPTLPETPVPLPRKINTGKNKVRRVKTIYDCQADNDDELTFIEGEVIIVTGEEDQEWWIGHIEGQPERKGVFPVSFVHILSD

[12] = luciferase reporter signal suppression in cells – H4 neuroglioma cells, luminescence, dose response (AID 1990); assay type: functional, cell-based
[13] = Luminescence Cell-Based Dose Response HTS to Identify Inhibitors of 5'UTR Stem-Loop Driven Prion Protein mRNA Translation in H4 Neuroglioblastoma Cells. [Related pubchem assays: 1827 (Project Summary), 1813 (Primary HTS)]; assay type: functional
[14] = alpha-synuclein stem-loop luciferase translation blockers – H4 neuroglioma cells, luminescence, confirmation (AID 1988); assay type: functional, cell-based
[15] = A549 cell cytotoxicity, dose response, cytotoxicity control, plate reader, cherry-pick, antagonist series (AID 743412); assay type: functional, cell-based
[16] = blockers of bursicon-stimulated LGR2 cAMP reporter – cell-based, HEK293, CRE-luciferase reporter, cherry pick, set 2, dose response (AID 743343); assay type: functional;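 note: transfected cells were stimulated with diluted bursicon conditioned medium after compound addition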
[17] = blockade of melanocortin 4 receptor signaling – cell-based, plate reader, cherry pick, counter-screen for LGR2 antagonist project, dose response (AID 743444); assay type: functional;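 note: transfected HEK 293 cells stimulated with alpha-MSH peptide; potency of inhibitors of the alpha-MSH evoked signal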
[18] = viability loss in HEK293 cells – cell-based, plate reader, cherry-picked samples, cytotoxicity control, dose response (AID 743446); assay type: functional
[19] = molecular target: Adenosylmethionine-8-amino-7-oxononanoate aminotransferase (Mycobacterium tuberculosis, UniProt P9WQ81); assay: Mycobacterium tuberculosis BioA enzyme inhibitor Measured in Biochemical System Using Plate Reader - 2163-02_Inhibitor_Dose_CherryPick_Activity.; assay type: functional, Mycobacterium tuberculosis UT205
Sequence of Adenosylmethionine-8-amino-7-oxononanoate aminotransferase (P9WQ81 whole entry): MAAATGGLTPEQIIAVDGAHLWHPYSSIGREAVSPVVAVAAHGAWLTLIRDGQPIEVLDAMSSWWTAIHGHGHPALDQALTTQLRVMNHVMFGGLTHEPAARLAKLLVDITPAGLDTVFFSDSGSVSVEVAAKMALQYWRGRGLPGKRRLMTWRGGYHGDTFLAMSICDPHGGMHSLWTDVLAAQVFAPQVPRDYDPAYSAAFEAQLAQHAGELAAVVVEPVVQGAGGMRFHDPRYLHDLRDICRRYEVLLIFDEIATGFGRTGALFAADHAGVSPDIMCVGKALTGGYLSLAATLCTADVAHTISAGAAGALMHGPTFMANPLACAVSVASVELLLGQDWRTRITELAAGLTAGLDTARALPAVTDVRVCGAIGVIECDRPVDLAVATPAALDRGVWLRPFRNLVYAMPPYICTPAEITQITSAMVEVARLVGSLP

[20] = molecular target: T4, Aryl hydrocarbon receptor (Homo sapiens, UniProt P35869); conditions: Potency;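 note: confirmatory quantitative high-throughput screen measuring activation of the AhR signaling pathway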
T4 sequence (P35869 whole entry): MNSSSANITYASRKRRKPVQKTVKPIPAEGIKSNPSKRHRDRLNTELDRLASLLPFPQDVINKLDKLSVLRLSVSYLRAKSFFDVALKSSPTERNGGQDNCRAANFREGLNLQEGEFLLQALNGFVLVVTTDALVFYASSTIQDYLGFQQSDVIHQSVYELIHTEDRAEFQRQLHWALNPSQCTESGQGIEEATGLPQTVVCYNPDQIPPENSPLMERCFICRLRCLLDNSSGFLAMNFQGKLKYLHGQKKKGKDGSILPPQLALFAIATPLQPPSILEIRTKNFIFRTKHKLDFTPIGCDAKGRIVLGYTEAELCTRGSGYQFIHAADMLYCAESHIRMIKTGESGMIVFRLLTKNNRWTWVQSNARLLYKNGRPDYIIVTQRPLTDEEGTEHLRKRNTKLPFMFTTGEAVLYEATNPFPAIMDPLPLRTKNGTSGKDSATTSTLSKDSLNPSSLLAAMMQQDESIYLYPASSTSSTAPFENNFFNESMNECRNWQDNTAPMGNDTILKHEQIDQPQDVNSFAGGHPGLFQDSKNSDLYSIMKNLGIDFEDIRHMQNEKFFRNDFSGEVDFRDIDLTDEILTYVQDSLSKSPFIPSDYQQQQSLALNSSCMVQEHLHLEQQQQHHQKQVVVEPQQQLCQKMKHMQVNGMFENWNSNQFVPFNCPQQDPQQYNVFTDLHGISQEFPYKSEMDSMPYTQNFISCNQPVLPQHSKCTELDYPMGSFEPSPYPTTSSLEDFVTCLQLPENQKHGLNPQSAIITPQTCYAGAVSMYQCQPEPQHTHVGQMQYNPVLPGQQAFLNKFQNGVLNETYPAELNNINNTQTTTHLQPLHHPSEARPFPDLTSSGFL

Large T antigen = Large T antigen (Simian virus 40, UniProt P03070); assay type: functional, Betapolyomavirus macacae;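 note: Confirmatory-stage PubChem screen for compounds that inhibit SV40 T antigen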
Sequence of Large T antigen (P03070 whole entry): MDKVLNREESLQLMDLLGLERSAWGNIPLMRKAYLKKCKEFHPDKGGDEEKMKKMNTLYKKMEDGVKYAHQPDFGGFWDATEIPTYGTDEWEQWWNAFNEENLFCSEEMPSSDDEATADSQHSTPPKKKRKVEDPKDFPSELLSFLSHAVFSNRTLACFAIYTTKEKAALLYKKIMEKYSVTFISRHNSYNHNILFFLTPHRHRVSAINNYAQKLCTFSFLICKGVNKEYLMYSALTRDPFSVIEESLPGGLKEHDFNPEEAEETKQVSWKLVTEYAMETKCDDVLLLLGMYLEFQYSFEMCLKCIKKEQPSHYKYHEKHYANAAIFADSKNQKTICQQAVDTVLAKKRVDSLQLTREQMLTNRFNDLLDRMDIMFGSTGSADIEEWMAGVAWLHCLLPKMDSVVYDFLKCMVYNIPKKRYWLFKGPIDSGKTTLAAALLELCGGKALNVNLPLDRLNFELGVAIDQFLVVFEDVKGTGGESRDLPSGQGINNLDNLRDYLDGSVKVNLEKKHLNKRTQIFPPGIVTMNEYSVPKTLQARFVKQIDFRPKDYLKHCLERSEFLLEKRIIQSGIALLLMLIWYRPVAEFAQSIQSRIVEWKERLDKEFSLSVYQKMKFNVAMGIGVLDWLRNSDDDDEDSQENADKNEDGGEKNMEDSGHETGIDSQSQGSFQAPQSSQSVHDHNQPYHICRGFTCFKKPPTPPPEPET

Beta-lactamase [21] = molecular target: Beta-lactamase (Salmonella choleraesuis (strain SC-B67), UniProt Q5J463); assay: Epi-absorbance-based counterscreen for selective VIM-2 inhibitors: dose response biochemical high throughput screening assay to identify inhibitors of TEM-1 serine-beta-lactamase.
Sequence of Beta-lactamase (Salmonella choleraesuis (strain SC-B67), UniProt Q5J463) (Q5J463 whole entry): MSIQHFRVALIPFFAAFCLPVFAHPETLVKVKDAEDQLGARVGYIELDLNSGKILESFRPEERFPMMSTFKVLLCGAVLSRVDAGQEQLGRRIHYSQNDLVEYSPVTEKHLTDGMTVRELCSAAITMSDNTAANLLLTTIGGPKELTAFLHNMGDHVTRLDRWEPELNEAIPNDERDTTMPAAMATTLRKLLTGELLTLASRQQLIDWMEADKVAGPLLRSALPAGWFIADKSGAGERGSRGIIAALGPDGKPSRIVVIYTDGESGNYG

Beta-lactamase [22] = molecular target: T5, Beta-lactamase (Pseudomonas aeruginosa, UniProt Q79MP6); assay: inhibition of IMP-1 beta-lactamase activity – biochemical, epi-absorbance, selectivity assay for VIM-2 inhibitor project, dose response (AID 1920)
T5 sequence (Q79MP6 whole entry): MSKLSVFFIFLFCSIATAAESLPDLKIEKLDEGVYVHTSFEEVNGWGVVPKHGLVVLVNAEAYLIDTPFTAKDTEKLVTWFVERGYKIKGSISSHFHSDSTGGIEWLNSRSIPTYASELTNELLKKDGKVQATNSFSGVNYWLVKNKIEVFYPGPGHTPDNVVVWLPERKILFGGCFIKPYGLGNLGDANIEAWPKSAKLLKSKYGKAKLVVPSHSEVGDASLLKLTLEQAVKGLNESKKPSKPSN

Beta-lactamase [23] = molecular target: T5, Beta-lactamase; assay: […] counterscreen for selective VIM-2 inhibitors: dose response biochemical high throughput screening assay to identify inhibitors of IMP-1 metallo-beta-lactamase.
[24] = molecular target: DNA dC->dU-editing enzyme APOBEC-3G (Homo sapiens, UniProt Q9HC16); assay: Dose Response confirmation of small molecule APOBEC3G DNA Deaminase Inhibitors via a fluorescence-based single-stranded DNA deaminase assay. [Related pubchem assays (depositor defined):AID493012, AID493028]; assay type: functional
Sequence of DNA dC->dU-editing enzyme APOBEC-3G (Q9HC16 whole entry): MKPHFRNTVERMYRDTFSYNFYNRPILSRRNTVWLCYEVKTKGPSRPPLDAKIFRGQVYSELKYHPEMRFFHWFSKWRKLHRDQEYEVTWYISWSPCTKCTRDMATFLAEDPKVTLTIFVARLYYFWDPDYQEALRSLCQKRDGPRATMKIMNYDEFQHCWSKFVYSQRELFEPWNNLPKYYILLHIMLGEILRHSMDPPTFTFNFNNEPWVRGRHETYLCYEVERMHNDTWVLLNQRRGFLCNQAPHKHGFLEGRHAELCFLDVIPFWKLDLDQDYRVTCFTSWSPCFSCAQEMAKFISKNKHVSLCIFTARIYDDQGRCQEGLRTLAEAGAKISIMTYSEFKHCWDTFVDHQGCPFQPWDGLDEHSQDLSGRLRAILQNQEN

In the case of `CCOc1ccc(NC(=S)N=Nc2c(O)[nH]c3ccccc23)cc1`, the EC50 [1] is reported as 0.465 µM (active), the EC50 (Streptokinase A) is reported as > 150 µM (not active) and the EC50 (Streptococcus) is reported as 5.53 µM (active). For the same compound, the IC50 [2] was > 20 µM (inactive), the AC50 (HEK293) was 2.7 µM (active) and the IC50 [3] was > 66 µM (inactive). For the same compound, the IC50 [4] was > 66 µM (inactive).
With `c1ccc(-n2cnc3cc(NCc4cccs4)ccc32)cc1` the CC50 [5] was > 40 µM (active) and the CC50 (Vero) was > 40 µM (active).
For `Cc1ccc(C)c(OCCn2cc(/C=C(/C#N)C(=O)NCC3CCCO3)c3ccccc32)c1` (stereo not given), the IC50 [6] was 27.5 µM (active), the IC50 [7] was > 100 µM (inactive) and the IC50 (Prothrombin) was 45.4 µM (active).
With `COC(=O)c1ccc(NC(=O)c2cn(-c3ccccc3)nc2-c2ccncc2)cc1` the EC50 [8] was 1.9 µM (active), the EC50 [9] was > 60 µM (not active) and the AC50 [10] was 4.18 µM (active). The IC50 [11] was 17.2 µM (inactive).
With `Cc1cc(N2CCCC2)c(F)cc1/C=C\[N+](=O)[O-]` the IC50 [6] was 14.7 µM (active), the IC50 [7] was > 100 µM (inactive) and the IC50 (Prothrombin) was 20 µM (active).
For `Cc1ccnc(NC(=O)CCC(=O)c2cccs2)c1`, the EC50 [12] was 4.73 µM (inconclusive), the EC50 [13] was 2.97 µM (active) and the EC50 [14] was 2.36 µM (active). The AC50 (HEK293) was 3 µM (active), the AC50 [15] was > 52 µM (inactive) and the AC50 [16] was 2.38 µM (active). For the same compound, the AC50 [17] was 2.17 µM (active) and the AC50 [18] was 34.9 µM (active).
With `COC(=O)c1sc(N)c(C(=O)OC)c1CSc1nnc(-c2ccccc2Cl)n1C` the AC50 [19] was 1.07 µM (active).
In the case of `Oc1ccc2cc(SSc3ccc4cc(O)ccc4c3)ccc2c1`, the AC50 [20] is reported as 56.2 µM (inconclusive).
In the case of `O=c1c(-c2ccc([N+](=O)[O-])cc2)coc2c(O)c(O)ccc12`, the IC50 (Large T antigen) is reported as 13.8 µM (active) and the CC50 (Vero) is reported as 21.4 µM (active).
With `CCCCn1c(S)nnc1-c1nn(C)c(C)c1Cl` the IC50 (Beta-lactamase [21]) was > 59.6 µM (inactive), the IC50 (Beta-lactamase [22]) was > 59.6 µM (inactive) and the IC50 (Beta-lactamase [23]) was > 59.6 µM (inactive). The IC50 [24] was 12.5 µM (active).
